Data: patent US12162858B2, “Quinoline derivatives as inhibitors of AXL/MER RTK and CSF1R” (QURIENT CO., LTD., priority 2018, dated 2024)

Key:
Type in all cases: cell-based
Axl (Ba/F3 cells) = target: T1, Axl (Ba/F3 cells) (Homo sapiens, UniProt P30530); test: BaF3 viability assay, Axl-dependent cells; details: read-out: Cellular Axl activity by Ba/F3 assay (IC50)
T1 sequence (P30530 1-894): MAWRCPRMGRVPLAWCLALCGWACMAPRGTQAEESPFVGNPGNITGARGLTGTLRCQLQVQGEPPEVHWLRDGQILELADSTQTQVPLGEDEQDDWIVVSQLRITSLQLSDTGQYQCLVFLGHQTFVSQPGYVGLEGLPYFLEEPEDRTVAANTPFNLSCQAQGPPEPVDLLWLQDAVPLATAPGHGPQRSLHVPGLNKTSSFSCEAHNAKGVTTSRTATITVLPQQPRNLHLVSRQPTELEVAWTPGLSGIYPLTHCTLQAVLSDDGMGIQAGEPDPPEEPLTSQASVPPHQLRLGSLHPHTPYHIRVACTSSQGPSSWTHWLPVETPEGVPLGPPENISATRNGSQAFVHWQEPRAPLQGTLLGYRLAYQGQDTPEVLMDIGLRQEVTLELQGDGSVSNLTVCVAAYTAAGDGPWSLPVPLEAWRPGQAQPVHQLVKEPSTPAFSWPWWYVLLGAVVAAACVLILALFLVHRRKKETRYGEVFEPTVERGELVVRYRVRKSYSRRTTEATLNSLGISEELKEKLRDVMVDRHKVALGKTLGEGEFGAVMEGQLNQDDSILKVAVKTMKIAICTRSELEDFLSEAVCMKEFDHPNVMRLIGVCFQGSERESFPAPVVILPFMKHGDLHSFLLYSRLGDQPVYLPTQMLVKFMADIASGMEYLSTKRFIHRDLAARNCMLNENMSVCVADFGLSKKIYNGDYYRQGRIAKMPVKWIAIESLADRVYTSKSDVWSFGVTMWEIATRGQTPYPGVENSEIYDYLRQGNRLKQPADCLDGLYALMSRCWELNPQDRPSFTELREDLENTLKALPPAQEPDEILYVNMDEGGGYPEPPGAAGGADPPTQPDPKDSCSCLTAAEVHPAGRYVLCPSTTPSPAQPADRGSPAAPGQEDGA
Source text: (§1) In this system, IL-3-dependent Ba/F3 cells are modified to express an activated recombinant kinase (in the present case Axl, Mer and CSF1R). Following removal of IL-3, the modified cells are dependent on the activity of the recombinant kinase for survival and proliferation. Inhibition of such kinase(s) through test compounds reduces survival and proliferation of the cells.
(§2) Cell lines were maintained in growth media (GM) consisting of RPMI 1640 supplemented with 10% FBS. Cells in logarithmic-phase growth were harvested and 5,000 cells were distributed into each well of a 384-well plate in 50 μl GM. Parental cells (or experimental assays where specified) were further supplemented with 2 ng/ml IL-3 to support cell growth and survival. Fifty nanoliters of the indicated reference standard or experimental compound were added to appropriate wells (in duplicate) and the cells were cultured for 48 h at 37° C./5% CO2. Viability was determined by adding 10 μl Cell Titer Glo and measuring luminescence, which is reported as relative light units (RLU) measured in counts per second. The following calculations and formulas are used for data analysis using GraphPad Prism software: The curve fitting was made using the Dose response curves-Inhibition.

Mer (Ba/F3 cells) = target: T2, Mer (Ba/F3 cells) (Homo sapiens, UniProt Q12866); test: BaF3 viability assay, Mer-dependent cells; details: read-out: Cellular Mer activity by Ba/F3 assay (IC50)
T2 sequence (Q12866 1-999): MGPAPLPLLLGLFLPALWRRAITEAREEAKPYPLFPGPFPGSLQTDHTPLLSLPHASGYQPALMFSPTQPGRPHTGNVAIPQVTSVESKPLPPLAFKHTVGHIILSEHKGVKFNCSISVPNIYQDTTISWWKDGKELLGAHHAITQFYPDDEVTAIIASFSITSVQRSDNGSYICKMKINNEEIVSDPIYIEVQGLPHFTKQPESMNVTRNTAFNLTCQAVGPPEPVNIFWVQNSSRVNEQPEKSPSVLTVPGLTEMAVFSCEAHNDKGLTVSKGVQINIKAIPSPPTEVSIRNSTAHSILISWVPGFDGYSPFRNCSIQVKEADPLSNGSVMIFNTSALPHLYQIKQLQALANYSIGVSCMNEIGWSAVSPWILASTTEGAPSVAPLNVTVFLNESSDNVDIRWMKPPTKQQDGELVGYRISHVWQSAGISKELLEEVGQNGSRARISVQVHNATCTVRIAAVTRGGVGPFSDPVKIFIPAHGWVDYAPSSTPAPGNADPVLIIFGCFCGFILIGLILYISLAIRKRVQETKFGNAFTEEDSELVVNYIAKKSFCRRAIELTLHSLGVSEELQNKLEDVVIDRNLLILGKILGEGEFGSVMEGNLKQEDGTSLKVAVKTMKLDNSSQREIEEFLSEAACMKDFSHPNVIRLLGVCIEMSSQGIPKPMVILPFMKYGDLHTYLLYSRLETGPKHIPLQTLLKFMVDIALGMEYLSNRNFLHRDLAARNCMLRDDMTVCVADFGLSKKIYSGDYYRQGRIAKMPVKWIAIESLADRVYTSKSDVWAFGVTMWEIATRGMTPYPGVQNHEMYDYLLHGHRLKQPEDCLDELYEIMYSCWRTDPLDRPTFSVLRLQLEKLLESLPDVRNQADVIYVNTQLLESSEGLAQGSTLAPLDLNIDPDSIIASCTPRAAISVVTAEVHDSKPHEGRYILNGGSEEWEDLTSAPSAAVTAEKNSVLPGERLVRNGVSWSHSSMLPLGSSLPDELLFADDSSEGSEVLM
Source text: as §1, §2

CSF1R (Ba/F3 cells) = CSF1R (Ba/F3 cells) (Homo sapiens, UniProt P07333); test: BaF3 viability assay, CSF1R-dependent cells; details: read-out: Cellular CSF1R activity by Ba/F3 assay (IC50)
Source text: as §1, §2

Measured: GI50

Chain of CSF1R (Ba/F3 cells) (P07333 whole entry, change not shown): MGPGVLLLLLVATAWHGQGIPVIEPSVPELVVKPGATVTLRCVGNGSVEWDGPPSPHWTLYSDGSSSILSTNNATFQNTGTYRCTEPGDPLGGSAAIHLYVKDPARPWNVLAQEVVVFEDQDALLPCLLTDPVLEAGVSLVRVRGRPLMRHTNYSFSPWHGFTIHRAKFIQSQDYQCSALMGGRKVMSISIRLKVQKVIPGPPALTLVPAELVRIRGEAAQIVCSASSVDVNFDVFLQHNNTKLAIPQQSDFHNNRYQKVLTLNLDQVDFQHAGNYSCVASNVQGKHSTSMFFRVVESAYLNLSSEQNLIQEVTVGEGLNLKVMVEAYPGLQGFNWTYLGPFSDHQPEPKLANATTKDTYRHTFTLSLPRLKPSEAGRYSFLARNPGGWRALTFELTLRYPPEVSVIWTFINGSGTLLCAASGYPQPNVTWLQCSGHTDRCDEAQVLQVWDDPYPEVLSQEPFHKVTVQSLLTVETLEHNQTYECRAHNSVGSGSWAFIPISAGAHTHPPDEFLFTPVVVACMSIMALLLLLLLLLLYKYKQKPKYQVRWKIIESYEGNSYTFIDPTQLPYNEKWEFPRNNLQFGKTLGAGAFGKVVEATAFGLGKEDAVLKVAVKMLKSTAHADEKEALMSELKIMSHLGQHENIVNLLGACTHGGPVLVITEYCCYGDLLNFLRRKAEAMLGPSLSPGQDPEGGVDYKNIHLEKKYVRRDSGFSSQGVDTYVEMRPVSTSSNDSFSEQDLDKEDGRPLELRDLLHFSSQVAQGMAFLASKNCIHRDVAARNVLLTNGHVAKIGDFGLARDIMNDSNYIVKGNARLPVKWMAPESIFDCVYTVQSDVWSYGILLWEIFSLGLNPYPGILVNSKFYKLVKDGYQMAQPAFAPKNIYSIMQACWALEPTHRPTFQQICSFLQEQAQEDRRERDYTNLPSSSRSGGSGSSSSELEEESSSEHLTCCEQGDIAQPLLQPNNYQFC

CCn1cc(OCC(F)(F)F)c(C(=O)Nc2ccc(Oc3ccnc4cc(OC)c(OC)cc34)cn2)n1 [Compound 4]
< 1000 nM: all assays above

CCCn1cc(OCC(F)(F)F)c(C(=O)Nc2ccc(Oc3ccnc4cc(OC)c(OC)cc34)cn2)n1 [Compound 7]
< 1000 nM: all assays above

CCCn1cc(OCC(F)F)c(C(=O)Nc2ccc(Oc3ccnc4cc(OC)c(OC)cc34)cn2)n1 [Compound 12]
< 1000 nM: all assays above

COCCn1cc(OCC(F)(F)F)c(C(=O)Nc2ccc(Oc3ccnc4cc(OC)c(OC)cc34)cn2)n1 [Compound 10]
< 1000 nM: all assays above

COc1cc2nccc(Oc3ccc(NC(=O)c4n[nH]cc4OCC(F)(F)F)nc3)c2cc1OC [Compound 16]
< 1000 nM: all assays above
